# Measured values taken from the supplement of paper PMC8024199.
# ± gives the standard deviation of the averaged measurements.
# Experiments:
# Assay in all cases: drug sensitivity score (DSS) (DSS score); higher = more sensitive (stronger growth inhibition); extreme values may be limits of the assay
# [1] = system: Ba/F3 P210-BCR-ABL1 RUNX1-/- (mouse)
# Method in brief: (§1)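 Mouse Ba/F3 cells, either CRISPR/Cas9-edited at a target exon or edited-control clones, were screened against a 528-compound library on pre-printed 384-well plates. Each compound was tested at five concentrations across a 10,000-fold range, with 10,000 cells per well in RPMI with 10% FBS for 72 h at 37 °C and 5% CO2. CellTiter-Glo luminescence was scaled between vehicle and positive-control wells, and each dose-response was summarised as a drug sensitivity score. Scores were averaged over two replicates.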
# [2] = system: Ba/F3 P210-BCR-ABL1 RUNX1wt/wt control (mouse)
# Method in brief: as §1
# [3] = system: Ba/F3 P210-BCR-ABL1 RUNX1-/mut (mouse)
# Method in brief: as §1
Structure (SMILES),drug sensitivity score [1],drug sensitivity score [2],drug sensitivity score [3]
Cc1ccc(=O)n(-c2ccccc2)c1 [Pirfenidone],0,0,0
NCCNc1ccc(NCCN)c2c1C(=O)c1ccncc1C2=O [Pixantrone],1.95 ± 1.3,0,2.45 ± 1.1
c1cc(CN2CCCNCCNCCCNCC2)ccc1CN1CCCNCCNCCCNCC1 [Plerixafor],0.05 ± 0.071,0,0.05 ± 0.071
Nc1cccc2c1C(=O)N(C1CCC(=O)NC1=O)C2=O (stereo not drawn) [Pomalidomide],0,0,0
Cc1ccc(C(=O)Nc2ccc(CN3CCN(C)CC3)c(C(F)(F)F)c2)cc1C#Cc1cnc2cccnn12 [Ponatinib],36.2 ± 2.4,30.2 ± 0.57,31.6 ± 0.28
C=CC(=O)N1CCC(Oc2cc3c(Nc4ccc(Cl)c(Cl)c4F)ncnc3cc2OC)CC1 [Poziotinib],0,0,0
CCCCc1nc2cc(/C=C/C(=O)NO)ccc2n1CCN(CC)CC [Pracinostat],20.7 ± 0.57,17.4 ± 0.49,19.4 ± 0.35
CC[C@H](C)C(=O)O[C@H]1C[C@H](O)C=C2C=C[C@H](C)[C@H](CC[C@@H](O)C[C@@H](O)CC(=O)O)[C@H]21 [Pravastatin],0.1 ± 0.14,0.1 ± 0.14,0
COc1cccc(OCCCN)c1-c1cc(Nc2cnc(C#N)cn2)n[nH]1 [Prexasertib],32.5 ± 2.5,30.4 ± 1.3,31.4
Cn1cc(CNCC2CCN(c3ncc(C(=O)NO)cn3)CC2)c2ccccc21 [Quisinostat],21.6 ± 1.3,15.3 ± 0.28,17.95 ± 0.071
Nc1cc(F)ccc1NC(=O)/C=C/c1cnn(C/C=C/c2ccccc2)c1 [RGFP966],4.8 ± 1.1,1.3 ± 0.28,4.25 ± 0.78
COC(=O)c1ccc([C@H]2c3[nH]c4ccccc4c3C[C@H](C(=O)OC)N2C(=O)CCl)cc1 [RSL3],0,0,0.3 ± 0.42
Cc1cnc(NC(=O)Nc2cc(Br)c(C)cc2OC[C@@H]2CNCCO2)cn1 [Rabusertib],3.25 ± 1.6,0.45 ± 0.49,3.3 ± 0.14
Cc1cn(-c2cc(NC(=O)c3ccc(C)c(Nc4nccc(-c5cnccn5)n4)c3)cc(C(F)(F)F)c2)cn1 [Radotinib],28.9 ± 8.2,27.9 ± 0.14,30.9 ± 0.64
CC(C)(C)Cn1c(N)nc2ccc(-c3[nH]c(C(C)(C)C)nc3-c3ccc(F)cc3)nc21 [Ralimetinib],9.6 ± 3.2,0.7 ± 0.99,8 ± 4.2
O=C(c1ccc(OCCN2CCCCC2)cc1)c1c(-c2ccc(O)cc2)sc2cc(O)ccc12 [Raloxifene],5.4 ± 2.3,3.7 ± 1.8,5.05 ± 3.3
Cc1nc(=O)c2cc(CN(C)c3ccc(C(=O)N[C@@H](CCC(=O)O)C(=O)O)s3)ccc2[nH]1 [Raltitrexed],23.4 ± 2.2,17.4 ± 0.57,20.3 ± 0.28
Cn1nccc1Nc1nccc(-c2ccn([C@H](CO)c3ccc(Cl)c(F)c3)c(=O)c2)n1 [Ravoxertinib],2.75 ± 2.6,0.05 ± 0.071,1.3 ± 1.8
CCOC(=O)C1=CCCC[C@H]1S(=O)(=O)Nc1ccc(F)cc1Cl [Resatorvid],0,0,0
CCOCc1nc2c(N)nc3ccccc3c2n1CC(C)(C)O [Resiquimod],3.6,0.15 ± 0.21,3.6 ± 5.1
CN(C)Cc1ccc(S(=O)(=O)n2ccc(/C=C/C(=O)NO)c2)cc1 [Resminostat],15.8 ± 0.78,13.1 ± 0.57,15.2 ± 0.92
